Source: publication PMC10819458, “Using Pharmacokinetic–Pharmacodynamic Modeling to Study the Main Active Substances of the Anticancer Effect in Mice from Panax ginseng–Ophiopogon japonicus” (Molecules, 2024)
Where two headings read alike, the source gives them in different places. Values belong to the compound of their own block, whether it stands above or below them.

Test: Lung-tissue pharmacokinetics of PG–OJ components in tumor-bearing mice (UPLC–MS/MS)
Assay type: in vivo, BALB/c nude male mice
Conditions: for Cmax: read-out: Cmax; for MRT last: read-out: MRT(0–t) (converted)
Text: This study employed Ultra-Performance Liquid Chromatography–Mass Spectrometry (UPLC–MS/MS) to examine the pharmacokinetic properties of 20 bioactive components in a cell-derived xenograft (CDX) model following oral administration of a 10.2 g/kg PG–OJ extract.
Healthy BALB/c nude male mice (weight: 18–21 g) were purchased from Beijing Huafukang Biotechnology Co., Ltd. (Beijing, China, License Number: SCXK (Jing) 2021-0006). After 3 days of acclimatization, the mice were randomly divided into the control group (CG), model group (MG), and the combined-administration group of P. ginseng and O. japonicus (HM1-HM13) ([…], four-fold clinical-equivalent doses). Subsequently, except for the CG, 0.2 mL (approximately 2 × 10^7 cells) of A549 cell suspension was aspirated with a 1 mL syringe and injected into the right axillary fossa of the model group and drug-administration-group mice. The control-group mice were injected with an equal volume of PBS at the same location. The tumor diameter was measured daily using a caliper. The model was successful when the tumor diameter > 3 mm. The combined-administration group of P. ginseng and O. japonicus was given the corresponding drug orally, once a day, with 0.2 mL/mouse each time. The control group and the model group mice were given the same volume of distilled water, continuously orally for 21 days. During this period, the body weight and tumor volume of the mice were recorded. At the end of the last administration, the mice were […] 0.083, 0.167, 0.25, 0.5, 0.75, 1, 2, 3, 4, 6, 8, 12, 24 h later. After injecting 0.1% pentobarbital sodium, blood was collected from the eye-socket vein, the mice were decapitated, and the tumor and lung tissues were carefully removed.
After homogenizing 50 mg of right-lung-tissue sample, 2 mL of acetonitrile was added to precipitate proteins. The mixture was oscillated for 2 min and then centrifuged for 10 min (12,000 rpm, 4 °C). The supernatant from the new centrifuge tube was collected and dried with nitrogen at room temperature. Finally, the supernatant was redissolved in 50 μL of acetonitrile solution containing 0.1% formic acid. After oscillating for 1 min, another centrifugation step was performed, and the resulting supernatant was used for analysis.
Samples were analyzed on the Vanquish UPLC System (Thermo, Waltham, MA, USA). The Agilent C18 column (4.6 × 150 mm, 4 μm, PN:693970-902T) was selected. The mobile phase was composed of 0.1% formic acid aqueous solution (A) and 0.1% formic acid acetonitrile solution (B). The procedure of gradient elution was as follows: 0–10 min, 95–75% A; 10–25 min, 75–45% A; 25–40 min, 45–30% A; 40–50 min, 30–5% A; 55–55.1 min, 5–95% A; 55.1–60 min, 95% A. The column temperature was set to 30 °C with the flow rate of 0.3 mL/min and the injection volume of 3.0 μL. The mass-spectrometry detection with negative-ion mode was carried out using an Orbitrap Exploris 120 Mass Spectrometer (Thermo, Waltham, MA, USA) and Electrospray ionization (ESI). The sheath-gas-flow rate was […] and the auxiliary-gas-flow rate was […]. The capillary temperature was 325 °C, and the resolution was 120,000 in full scan mode with the mass scan range of 80~1500 m/z. The secondary cracking was performed with HCD at a collision voltage of 30 eV, and unnecessary MS/MS information was removed using the dynamic exclusion method.

[1] = lung tissue, A549 tumor-bearing mice, intragastric PG–OJ extract 10.2 g/kg (6.8 g/kg elsewhere in the source), mean ± SD, n = 6
[2] = male, BALB/c nude, mouse, po, lung tissue, A549 tumor-bearing mice, intragastric PG–OJ extract 10.2 g/kg (6.8 g/kg elsewhere in the source), mean ± SD, n = 6
[3] = male, BALB/c nude, mouse, in vivo, po, lung tissue, A549 tumor-bearing mice, intragastric PG–OJ extract 10.2 g/kg (6.8 g/kg elsewhere in the source), mean ± SD, n = 6

Structure (SMILES): CC(C)=CC/C=C(\C)[C@H]1CC[C@]2(C)[C@@H]1[C@H](O)C[C@@H]1[C@@]3(C)CC[C@H](O[C@@H]4O[C@H](CO)[C@@H](O)[C@H](O)[C@H]4O[C@@H]4O[C@H](CO)[C@@H](O)[C@H](O)[C@H]4O)C(C)(C)[C@@H]3CC[C@]12C [Ginsenoside Rg5]
AUC(0–t) [1]: 1,342,117.43 ± 45,675.73 ng/g·min
AUC(0–∞) [1]: 1,372,202.28 ± 48,963.33 ng/g·min
AUC(0–∞) compared with other components (lung tissue, oral PG–OJ extract, in words): significantly higher than those of other components
Tmax (male, BALB/c nude, mouse, lung tissue, po, 10.2 g/kg, lung tissue, A549 tumor-bearing mice, intragastric PG–OJ extract 10.2 g/kg (6.8 g/kg elsewhere in the source), mean ± SD, n = 6, read-out: Tmax (converted)): 4 h
Tmax (male, BALB/c nude, mouse, lung tissue, po, 10.2 g/kg, lung tissue, oral PG–OJ extract, read-out: time to reach peak concentration): 12 h
Cmax [2]: 7970 ± 442 ng/g
MRT last [2]: 3.07 h
half-life (male, BALB/c nude, mouse, po, lung tissue, A549 tumor-bearing mice, intragastric PG–OJ extract 10.2 g/kg (6.8 g/kg elsewhere in the source), mean ± SD, n = 6, read-out: T1/2): 2.11 ± 0.157 h
exposure level in lung tissue (oral PG–OJ extract, in words): highest exposure level

Structure (SMILES): CC(C)=CCC[C@](C)(O)[C@H]1CC[C@]2(C)[C@@H]1[C@H](O)C[C@@H]1[C@@]3(C)CC[C@H](O)C(C)(C)[C@@H]3[C@@H](O[C@@H]3O[C@H](CO)[C@@H](O)[C@H](O)[C@H]3O)C[C@]12C [Ginsenoside Rh1]
AUC(0–t) [1]: 1303.44 ± 70.16 ng·min/g
AUC(0–∞) [1]: 1724.14 ± 411.48 ng·min/g
time to reach maximum concentration (Cmax) after administration (lung tissue, oral PG–OJ extract): ≤ 15 min
half-life (male, BALB/c nude, mouse, in vivo, po, 10.2 g/kg, lung tissue, A549 tumor-bearing mice, intragastric PG–OJ extract 10.2 g/kg (6.8 g/kg elsewhere in the source), mean ± SD, n = 6, read-out: T1/2): 6.97 ± 4.9 h
half-life (male, BALB/c nude, mouse, in vivo, po, 10.2 g/kg, lung tissue, oral PG–OJ extract, read-out: half-life (converted)): 6.9 h
Cmax [3]: 8.98 ± 0.2 ng/g
MRT last [3]: 3.18 h
Tmax (male, BALB/c nude, mouse, in vivo, po, lung tissue, A549 tumor-bearing mice, intragastric PG–OJ extract 10.2 g/kg (6.8 g/kg elsewhere in the source), mean ± SD, n = 6, read-out: Tmax (converted)): 0.208 h
exposure level in lung tissue (oral PG–OJ extract, in words): extremely low

T1/2 (mouse, in vivo, po): 4.2077 ± 0.198 h
Tmax (mouse, in vivo, po): 0.2083 ± 0.0482 h
time to reach maximum concentration (Cmax) after administration (mouse, in vivo, po): ≤ 15 min
Structure (SMILES): CC1(C)CC[C@]2(C(=O)O[C@@H]3O[C@H](CO)[C@@H](O)[C@H](O)[C@H]3O)CC[C@]3(C)C(=CC[C@@H]4[C@@]5(C)CC[C@H](O[C@@H]6O[C@H](C(=O)O)[C@@H](O)[C@H](O)[C@H]6O[C@@H]6O[C@H](CO)[C@@H](O)[C@H](O)[C@H]6O)C(C)(C)[C@@H]5CC[C@]43C)[C@@H]2C1 [Ginsenoside Ro]

T1/2 (mouse, in vivo, po): 20.3208 ± 6.0457 h
Tmax (mouse, in vivo, po): 2.5 ± 0 h
Structure (SMILES): Cc1c(O)c(C)c2c(c1O)C(=O)[C@H](Cc1ccc3c(c1)OCO3)CO2 [Methylophiopogonanone A]

T1/2 (mouse, in vivo, po): 6.5088 ± 1.6737 h
Tmax (mouse, in vivo, po): 2.5 ± 0 h
Structure (SMILES): COc1ccc(C[C@@H]2COc3c(C)c(O)c(C)c(O)c3C2=O)cc1 [Methylophiopogonanone B]

Structure (SMILES): CC(C)=CCC[C@](C)(O[C@@H]1O[C@H](CO)[C@@H](O)[C@H](O)[C@H]1O)[C@H]1CC[C@]2(C)[C@@H]1[C@H](O)C[C@@H]1[C@@]3(C)CC[C@H](O)C(C)(C)[C@@H]3[C@@H](O[C@@H]3O[C@H](CO)[C@@H](O)[C@H](O)[C@H]3O[C@@H]3OC[C@@H](O)[C@H](O)[C@H]3O)C[C@]12C [Notoginsenoside R1]
T1/2 (mouse, in vivo, po): 1.24 ± 0.0245 h
Tmax (mouse, in vivo, po): 0.125 ± 0.059 h
exposure level in lung tissue (mouse, in vivo, po): extremely low
time to reach maximum concentration (Cmax) after administration (mouse, in vivo, po): ≤ 15 min

T1/2 (mouse, in vivo, po): 10.572 ± 2.3632 h
Tmax (mouse, in vivo, po): 0.25 ± 0 h
half-life (mouse, in vivo, po): 10.6 h
time to reach maximum concentration (Cmax) after administration (mouse, in vivo, po): ≤ 15 min
Structure (SMILES): CC(C)(O)[C@H]1CC[C@@](C)([C@H]2CC[C@]3(C)[C@@H]2[C@H](O)C[C@@H]2[C@@]4(C)CC[C@H](O)C(C)(C)[C@@H]4[C@@H](O[C@@H]4O[C@H](CO)[C@@H](O)[C@H](O)[C@H]4O)C[C@]23C)O1 [Pseudoginsenoside RT5]
